Experimental data: patent publication US5204345A, “6-epifumagillols and the pharmaceutical use thereof” (Takeda Chemical Industries, Ltd., priority 1989, dated 1993)
In brackets after ≈: the same amount, converted by molar mass. Like-named read-outs stand apart in the source and are kept apart here.

How the values were obtained:
[1] = system: human umbilical vein endothelial cells; assay: inhibition of human umbilical vein endothelial cell growth (MTT); type: cell-based; conditions: 120 h, rFGF 2 ng/ml, 5-day culture, MTT OD590, read-out: IC50, inhibiting endothelial cell growth
Procedure: Evaluation of inhibition of human umbilical vein endothelial cell growth
Human umbilical vein endothelial cells were isolated by perfusion of an umbilical vein with a trypsin-containing medium. The cells were cultured in sequence in GIT medium (Daigo Eiyo Kagaku) supplemented with 2.5% fetal bovine serum and 2.0 ng/ml or recombinant human fibroblast growth factor (hereinafter simply referred to rFGF, prepared at Biotechnology Research Laboratories, Takeda Chemical Industries, Ltd.).
A suspension of human vein endothelial cells at the cell density of 2×10^3 (100 μl) was seeded on 96-well incubation plate (Nunc, 1-67008), and incubation was conducted in a gas-controlled thermostat vessel. The following day, 100 μl of medium containing rFGF (2 ng/ml at the final concentration) and samples of various concentrations were added. […] After 5-day culture, the culture solution containing samples was removed by suction, 100 μl of 1 mg/ml of MTT solution [3-(4,5-dimethyl-2-thiazolyl)-2,5-diphenyl-2H-tetrazolium bromide was dissolved in the culture solution] was added and kept warm it about 40° C. for 4 hours. Then, 100 μl of a 10% SDS solution (aqueous solution of sodium dodecyl sulfate) was added, and the mixture was kept warming for 5-6 hours. The cells and MTT pigment were solubilized, and the OD590 value was measured using a spectrophotometer.

[2] = system: bFGF-induced angiogenesis; assay: rat cornea micropocket method, angiogenesis inhibitory activity; type: in vivo, rat (Sprague-Dawley); conditions: number of rats with angiogenesis inhibitory activity relative to number tested; sample 20 ug pellet, bFGF 250 ng, 10 days
Procedure: The object compounds (I) obtained in the Examples given below were evaluated for angiogenesis inhibitory activity by the rat cornea micropocket method. Method of Evaluation:
Essentially the same method of Gimbrone et al. [J. National Cancer Institute, 52, 413-419 (1974)] was followed. Thus, adult male Sprague-Dawley rats (11 to 16 week old) were anesthetized with nembutal and locally anesthetized by instillation of xylocaine eyedrops onto the eyeball. The cornea was incised to a length of about 2 mm at about 2 mm inside from the corneal circumference by means of an injection needle, and a basic fibroblast growth factor (bFGF; bovine brain-derived, purified product; R & D Inc.) and a sustained release pellet containing the test sample were inserted side by side into the incision so that the bFGF pellet was located on the central side in the cornea. In the control group, the bFGF pellet and a sample-free pellet were inserted into the cornea. After 10 days, the cornea was observed under a stereoscopic microscope.
The sustained release pellets were prepared in the following manner. An ethylene-vinyl acetate copolymer (Takeda Chemical Industries, Ltd.) was dissolved in dichloromethane to a concentration of 8%. A 3 μl portion of the solution was air-dried on a glass dish, an aqueous solution of bFGF (250 ng) was then placed thereon and air-dried and, finally 3 μl of the above ethylene-vinyl acetate copolymer solution was placed further thereon and air-dried to give a sandwich sheet. This sandwich sheet was made round into a bFGF pellet. The test sample pellets were prepared by dissolving each sample in ethanol in a concentration of 20 ug/2 μl, mixing the solution with 6 μl of an ethylene-vinyl acetate copolymer solution, air-drying the mixed solution in a glass dish and making the thus-obtainedsheet round.
In the Table 1 above, the inhibitory rate means the number of rats on which angiogenesis inhibitory activity was observed relative to the number of rats tested.

thymus and spleen weight = type: in vivo, mouse (BALB/c); conditions: for Spleen weight / Thymus weight: percentage against reference group injected with saline; for reduction of spleen weight: words
Procedure: and spleen were represented as percentages against those of a reference
group which were injected with saline.

[3] = system: T cell independent antibody production; assay: antibody production induced by Epstein Barr virus (T cell independent B cell mitogen); type: cell-based; conditions: in vitro
Excerpt: (§1) The effects of compounds 5 and 8 on the antibody production induced by pokeweed mitogen, a T cell dependent B cell mitogen, and Epstein Barr virus, a T cell independent B cell mitogen, were examined.

[4] = system: germinal center formation and plasma cell induction in the spleen; assay: histological study in the spleen of mice immunized with sheep red blood cells; type: in vivo, mouse (BALB/c); conditions: compounds 5 and 8: 100 mg/kg i.p. once a day for 4 days; day 6 after immunization; words
[5] = system: anti-bovine gamma globulin antibody titer; assay: anti-bovine gamma globulin antibody titer in immunized mice; type: in vivo, mouse (BALB/c); conditions: for Anti-bovine gamma globulin antibody titer, suppression: 20 mg/kg i.p. every 2 days, sera 3 weeks after immunization, words; for Anti-bovine gamma globulin Ab titer: percentage against reference group injected with saline, compounds 5 and 8: 20 mg/kg i.p. every 2 days, 3 weeks
Procedure: Anti-bovine gamma globulin antibody titer was assayed in sera obtained 3 weeks after the immunization.

[6] = system: spleen cells from BALB/c and C57BL/6 mice; assay: 3H-thymidine uptake induced by the mixed lymphocyte reaction of spleen cells; type: cell-based, mouse (BALB/c and C57BL/6); conditions: Mus musculus, in vitro
[7] = system: T cell dependent immunoglobulin production; assay: antibody production induced by pokeweed mitogen (T cell dependent B cell mitogen); type: cell-based; conditions: in vitro
Excerpt: as §1

[8] = Epstein Barr virus, read-out: 50% suppression of T cell independent antibody production, concentration
[9] = Table 3, read-out: T independent Ab production, concentration which showed 50% inhibition
[10] = Lymphocyte, Table 3, read-out: Mixed lymphocyte reaction, concentration which showed 50% inhibition
[11] = mixed lymphocyte reaction, read-out: 50% inhibition of 3H-thymidine uptake, concentration
[12] = Table 3, read-out: T dependent Ab production, concentration which showed 50% inhibition
[13] = pokeweed mitogen, read-out: 50% suppression of T cell dependent immunoglobulin production, concentration

SMILES: CO[C@@H]1[C@@H](OC=O)CC[C@]2(CO2)[C@H]1[C@@]1(C)O[C@@H]1CC=C(C)C [Example 1, 6-O-formyl-6-epifumagillol]
- IC50 [1]: < 0.08 ng/mL
- Inhibitory Rate [2]: 3/7

SMILES: CO[C@@H]1[C@@H](O)CC[C@]2(CO2)[C@H]1[C@@]1(C)O[C@@H]1CC=C(C)C [Example 2, 6-epifumagillol]
- IC50 [1]: < 0.08 ng/mL
- Inhibitory Rate [2]: 3/7

SMILES: CO[C@@H]1[C@@H](OC)CC[C@]2(CO2)[C@H]1[C@@]1(C)O[C@@H]1CC=C(C)C [Example 3, 6-O-methyl-6-epifumagillol]
- IC50 [1]: 9.82 ng/mL (≈ 33.1 nM)

SMILES: CO[C@@H]1[C@@H](OC(C)=O)CC[C@]2(CO2)[C@H]1[C@@]1(C)O[C@@H]1CC=C(C)C [Example 5, 6-O-acetyl-6-epifumagillol]
- Spleen weight (thymus and spleen weight): 57%
- Thymus weight (thymus and spleen weight): 105%
- reduction of spleen weight (thymus and spleen weight): reduction of spleen weight was observed
- IC50 [3, 8]: 30 nM
- IC50 [3, 9]: 30 nM
- formation of germinal center in the spleen [4]: suppressed the formation of germinal center
- induction of plasma cells in the spleen [4]: suppressed
- IC50 [1]: 1.91 ng/mL (≈ 5.89 nM)
- Inhibitory Rate [2]: 4/8
- Anti-bovine gamma globulin antibody titer, suppression [5]: significant suppression
- Anti-bovine gamma globulin Ab titer [5]: 13%
- IC50 [6, 10]: 300 nM
- IC50 [6, 11]: 300 nM
- IC50 [7, 12]: 7000 nM
- IC50 [7, 13]: 7000 nM

SMILES: CO[C@@H]1[C@@H](OC(=O)c2ccccc2)CC[C@]2(CO2)[C@H]1[C@@]1(C)O[C@@H]1CC=C(C)C [Example 6, 6-O-benzoyl-6-epifumagillol]
- IC50 [1]: 2.05 ng/mL (≈ 5.3 nM)
- Inhibitory Rate [2]: 6/6

SMILES: CO[C@@H]1[C@@H](OC(=O)CCC(=O)O)CC[C@]2(CO2)[C@H]1[C@@]1(C)O[C@@H]1CC=C(C)C [Example 7, 6-O-(3-carboxypropionyl)-6-epifumagillol]
- IC50 [1]: 8.71 ng/mL (≈ 22.8 nM)
- Inhibitory Rate [2]: 5/6

SMILES: CO[C@@H]1[C@@H](OC(=O)Oc2ccccc2)CC[C@]2(CO2)[C@H]1[C@@]1(C)O[C@@H]1CC=C(C)C [Example 8, 6-O-phenoxycarbonyl-6-epifumagillol]
- Spleen weight (thymus and spleen weight): 60%
- Thymus weight (thymus and spleen weight): 116%
- reduction of spleen weight (thymus and spleen weight): reduction of spleen weight was observed
- IC50 [3, 8]: 1 nM
- IC50 [3, 9]: 1 nM
- formation of germinal center in the spleen [4]: suppressed the formation of germinal center
- induction of plasma cells in the spleen [4]: suppressed
- IC50 [1]: 0.166 ng/mL (≈ 0.412 nM)
- Inhibitory Rate [2]: 5/7
- Anti-bovine gamma globulin antibody titer, suppression [5]: significant suppression
- Anti-bovine gamma globulin Ab titer [5]: 9%
- IC50 [6, 10]: 400 nM
- IC50 [6, 11]: 10 nM
- IC50 [7, 12]: 4000 nM
- IC50 [7, 13]: 4000 nM

SMILES: CO[C@@H]1[C@@H](OC(N)=O)CC[C@]2(CO2)[C@H]1[C@@]1(C)O[C@@H]1CC=C(C)C [Example 9, 6-O-carbamoyl-6-epifumagillol]
- IC50 [1]: 0.1 ng/mL (≈ 0.307 nM)

SMILES: CO[C@@H]1[C@@H](OC(=O)N2CCOCC2)CC[C@]2(CO2)[C@H]1[C@@]1(C)O[C@@H]1CC=C(C)C [Example 11, 6-O-morpholinocarbonyl-6-epifumagillol]
- IC50 [1]: 4.68 ng/mL (≈ 11.8 nM)

SMILES: CO[C@@H]1[C@@H](OS(C)(=O)=O)CC[C@]2(CO2)[C@H]1[C@@]1(C)O[C@@H]1CC=C(C)C [Example 12, 6-O-methanesulfonyl-6-epifumagillol]
- IC50 [1]: 6.5 ng/mL (≈ 18 nM)
- Inhibitory Rate [2]: 3/4
